Test results from patent publication US20230372318A1, “METHODS FOR TREATING A SUBJECT HAVING MULTIPLE SYSTEM ATROPHY” (Theravance Biopharma R&D IP, LLC, priority 2022, published 2023).

Tested on: subjects with primary autonomic failures (MSA, PD, or PAF) and symptomatic nOH
Test: Phase 3 22-week randomized withdrawal study in symptomatic nOH (Example 7)
Format: in vivo, human
Design: OHSA composite score, LS Mean / OHSA composite score, Mean / OHSA composite score, Median / OHSA composite score, LS Mean Difference / OHDAS item 1 (standing for a short time) score, Mean / OHDAS item 1 (standing for a short time) score, Median / OHDAS item 1 (standing for a short time) score, LS Mean / OHDAS item 1 (standing for a short time) score, LS Mean Difference: scale not given here
Settings: for OHSA composite score, Mean / OHSA composite score, Median / OHSA composite score, LS Mean Difference / OHSA composite score, LS Mean: change at week 22, end of 6-week double-blind period; for OHDAS item 1 (standing for a short time) score, LS Mean / OHDAS item 1 (standing for a short time) score, Mean / OHDAS item 1 (standing for a short time) score, Median / OHDAS item 1 (standing for a short time) score, LS Mean Difference: week 22, end of 6-week double-blind period
Method: The study consisted of a 16-week open-label (OL) treatment period with ampreloxetine followed by a 6-week double-blind randomized withdrawal period where subjects were administered either ampreloxetine or placebo.
Eligible subjects were either (i) completers of the study of Example 6 (“Completers Group”), or (ii) symptomatic nOH subjects meeting all applicable study inclusion criteria and none of the applicable exclusion criteria (“De Novo Group”).
A 4-week screening period applied to the De Novo Group only and the Screening visit was conducted in clinic for all De Novo Group subjects.
A total of 203 subjects entered this study (170 subjects from Example 6 (85 from the ampreloxetine group and 85 from the placebo group) and 33 de novo subjects). During the OL period, 55 subjects discontinued treatment. At 16 weeks, 64 subjects were randomized to the ampreloxetine group (6 subjects discontinued the study) and 64 subjects were randomized to the placebo group (3 subjects discontinued the study). A total of 119 subjects completed the study. Of the 128 subjects entering the randomized period, 40 subjects had MSA (31%); 68 subjects had PD (53%); and 20 subjects had PAF (16%) (in each category, the subjects were split equally between ampreloxetine and placebo).
Beginning on Day 2, subjects received a single dose of 10 mg ampreloxetine once daily (QD) and continued thereafter for the 16-week duration of the OL treatment period. Following this 16-week OL treatment period, subjects were randomized to either continue on the active treatment or placebo (“PBO”) for a period of 6 weeks.
Subjects enrolled into the OL period of the study had visits scheduled for Day 15, Day 29, and every 4 weeks thereafter for assessments as outlined in the Schedule of Study Procedures. […] Those subjects not meeting this continuation criterion were discontinued and underwent an end of study visit. The end of study visit was completed within 2 weeks from the date of the last dose.
Following the completion of a total of 16 weeks OL treatment with ampreloxetine (V6), subjects were assessed for randomization in a 1:1 manner. Eligible subjects received 6 weeks of double-blind treatment of ampreloxetine or PBO once daily. Only subjects with OHSA #1 score of ≤7 were eligible for randomization for the double-blind treatment period.
Exploratory assessments included: orthostatic standing test; NMSS; EQ-5D-5L; HADS; and BSFC-s. For subjects with PD, exploratory assessments included: Unified Parkinson's Disease Rating Scale (UPDRS); and Parkinson's Disease Questionaire-8 (PDQ-8). For subjects with MSA, exploratory assessments included: Unified Multiple System Atrophy Rating Scale (UMSARS); and Composite Autonomic Symptom Score-31 (COMPASS-31).
The secondary endpoints included: • (a) Change from baseline in OHSA #1 at Week 6 post randomization (V9, D155); • (b) Change from baseline in OHSA composite score at Week 6 post randomization (V9, D155); • (c) Change from baseline in OHDAS composite score at Week 6 post randomization (V9, D155); • (d) Change from baseline in PGI-S at Week 6 post randomization (V9, D155); • (e) Change from baseline in percentage of time spent in standing position as measured by a wearable device at Week 6 post randomization (V9, D155); and • (f) Change from baseline in average number of steps taken as measured by a wearable device at Week 6 post randomization (V9, D155).

[1] = MSA subjects, Pre treatment baseline OHSA1 <7
[2] = MSA subjects, Pre treatment baseline OHSA1 >2
[3] = MSA subjects, Pre treatment baseline OHSA1 >=7
[4] = MSA subjects, Pre treatment baseline OHSA Composite <5.3
[5] = MSA subjects, Pre treatment baseline OHSA Composite >=5.3
[6] = MSA subjects, RW baseline OHSA1 <=2
[7] = MSA subjects, RW baseline OHSA Composite <2.5
[8] = MSA subjects, RW baseline OHSA Composite >=2.5
[9] = MSA subjects, UMSARS Part IV <4
[10] = MSA subjects, UMSARS Part IV <4, vs placebo
[11] = MSA subjects, UMSARS Part IV >=4
[12] = MSA subjects, UMSARS Part IV >=4, vs placebo
[13] = MSA subjects, nOH onset <1.6 years
[14] = MSA subjects, nOH onset <1.6 years, vs placebo
[15] = MSA subjects, nOH onset >=1.6 years
[16] = MSA subjects, nOH onset >=1.6 years, vs placebo
[17] = MSA subjects, end of 6-week double-blind randomized period, FIG. 3
[18] = MSA subjects, week 22, 10 mg, N 19

Fc1cc(F)c(OCc2ccccc2C2CCNCC2)c(F)c1 [Ampreloxetine, 4-[2-(2,4,6-trifluorophenoxymethyl)phenyl]piperidine]
OHSA composite score, Mean [1]: −0.11
OHSA composite score, Median [1]: −0.1
OHSA composite score, LS Mean Difference (MSA subjects, Pre treatment baseline OHSA1 <7, vs placebo): −1.08
OHSA composite score, LS Mean [2]: −0.77
OHSA composite score, Mean [2]: −0.96
OHSA composite score, Median [2]: −0.6
OHSA composite score, LS Mean Difference (MSA subjects, Pre treatment baseline OHSA1 >2, vs placebo): −1.99
OHSA composite score, LS Mean [3]: 0.41
OHSA composite score, Mean [3]: 0.00
OHSA composite score, Median [3]: 0.5
OHSA composite score, LS Mean Difference (MSA subjects, Pre treatment baseline OHSA1 >=7, vs placebo): −1.31
OHSA composite score, LS Mean [4]: −0.71
OHSA composite score, Mean [4]: −0.56
OHSA composite score, Median [4]: −0.05
OHSA composite score, LS Mean Difference (MSA subjects, Pre treatment baseline OHSA Composite <5.3, vs placebo): −1.96
OHSA composite score, LS Mean [5]: 0.76
OHSA composite score, Mean [5]: 0.46
OHSA composite score, Median [5]: 0.3
OHSA composite score, LS Mean Difference (MSA subjects, Pre treatment baseline OHSA Composite >=5.3, vs placebo): −0.97
OHSA composite score, LS Mean [6]: 0.74
OHSA composite score, Mean [6]: 0.86
OHSA composite score, Median [6]: 0.25
OHSA composite score, LS Mean Difference (MSA subjects, RW baseline OHSA1 <=2, vs placebo): −0.91
OHSA composite score, LS Mean [7]: 0.95
OHSA composite score, Mean [7]: 0.98
OHSA composite score, Median [7]: 0.4
OHSA composite score, LS Mean Difference (MSA subjects, RW baseline OHSA Composite <2.5, vs placebo): −0.90
OHSA composite score, LS Mean [8]: −0.92
OHSA composite score, Mean [8]: −0.90
OHSA composite score, Median [8]: −0.5
OHSA composite score, LS Mean Difference (MSA subjects, RW baseline OHSA Composite >=2.5, vs placebo): −1.96
OHSA composite score, LS Mean [9]: 0.01
OHSA composite score, Mean [9]: −0.04
OHSA composite score, Median [9]: 0.25
OHSA composite score, LS Mean Difference [10]: −1.70
OHDAS item 1 (standing for a short time) score, LS Mean [9]: −0.3
OHDAS item 1 (standing for a short time) score, Mean [9]: −0.3
OHDAS item 1 (standing for a short time) score, Median [9]: 0.0
OHDAS item 1 (standing for a short time) score, LS Mean Difference [10]: −2.8
OHSA composite score, LS Mean [11]: −0.17
OHSA composite score, Mean [11]: −0.15
OHSA composite score, Median [11]: −0.15
OHSA composite score, LS Mean Difference [12]: −1.44
OHDAS item 1 (standing for a short time) score, LS Mean [11]: 0.5
OHDAS item 1 (standing for a short time) score, Mean [11]: 1.0
OHDAS item 1 (standing for a short time) score, Median [11]: 1.0
OHDAS item 1 (standing for a short time) score, LS Mean Difference [12]: 1.9
OHSA composite score, LS Mean [13]: 0.48
OHSA composite score, Mean [13]: 0.43
OHSA composite score, Median [13]: 0.50
OHSA composite score, LS Mean Difference [14]: −1.33
OHDAS item 1 (standing for a short time) score, LS Mean [13]: −0.3
OHDAS item 1 (standing for a short time) score, Mean [13]: −0.3
OHDAS item 1 (standing for a short time) score, Median [13]: 0.0
OHDAS item 1 (standing for a short time) score, LS Mean Difference [14]: −2.4
OHSA composite score, LS Mean [15]: −0.45
OHSA composite score, Mean [15]: −0.41
OHSA composite score, Median [15]: −0.20
OHSA composite score, LS Mean Difference [16]: −1.56
OHDAS item 1 (standing for a short time) score, LS Mean [15]: −0.3
OHDAS item 1 (standing for a short time) score, Mean [15]: −0.1
OHDAS item 1 (standing for a short time) score, Median [15]: 0.0
OHDAS item 1 (standing for a short time) score, LS Mean Difference [16]: −0.8
OHDAS composite score, change (MSA subjects, 6-week double-blind randomized period, placebo +0.97, p=0.196): +0.16
Systolic blood pressure upon standing for 3 minutes, mean change (MSA subjects, 6-week double-blind randomized period, placebo −12.4): +6.1 mmHg
Quality of life, EQ-5D-5L visual analog scale (MSA subjects, FIG. 4, vs placebo): quality of life declines less or improves
OHDAS walking long time [17]: favor placebo
OHSA and OHDAS composite scores and individual subscores [17]: all favor ampreloxetine
OHSA item 1 score, change (MSA subjects, end of 6-week double-blind randomized withdrawal period, placebo +1.8, p=0.0861): +0.3
Anxiety Total Score, Change from Baseline, LS Mean Difference (SE) (MSA subjects, week 22, 10 mg vs placebo, P-value 0.0343): −1.26 (0.573)
Anxiety Total Score, Change from Baseline, LS Mean (SE) [18]: −1.05 (0.405)
Anxiety Total Score, Change from Baseline, Mean (SD) [18]: −1.05 (1.900)
Anxiety Total Score, Change from Baseline, Median [18]: −1.00
OHQ composite scores for subgroups (subgroups of MSA subjects, week 22, FIG. 6): all favored ampreloxetine
